Experiments:
Type in all cases: biochemical
Thrombin = Thrombin (Homo sapiens, UniProt P00734); experiment: Related protease inhibition: Thrombin, fluorogenic substrate; conditions: fluorogenic substrate at Km, 25° C., H1-H3 = % activity at 40 μM; for activity at 40 µM: read-out: IC50 (human thrombin) nM
Description: (§1) Human serine protease enzyme Plasma Kallikrein, KLK1, FXa, Plasmin, Thrombin and Trypsin were assayed for enzymatic activity using an appropriate fluorogenic substrate at Km concentration, FXIa at fixed substrate concentration of 100 μM and various concentrations of the test compound.

[1] = target: T1, Human Factor XIIa (hFXIIa) (Homo sapiens, UniProt P00748); experiment: Determination of Human Factor XIIa (hFXIIa) inhibition, fluorogenic substrate IC50 assay; conditions: fluorogenic substrate H-DPro-Phe-Arg-AFC at Km, 25° C., read-out: Human FXIIa IC50
T1 construct: purchased Enzyme Research Laboratories
T1 sequence (P00748 373-615 limits assumed): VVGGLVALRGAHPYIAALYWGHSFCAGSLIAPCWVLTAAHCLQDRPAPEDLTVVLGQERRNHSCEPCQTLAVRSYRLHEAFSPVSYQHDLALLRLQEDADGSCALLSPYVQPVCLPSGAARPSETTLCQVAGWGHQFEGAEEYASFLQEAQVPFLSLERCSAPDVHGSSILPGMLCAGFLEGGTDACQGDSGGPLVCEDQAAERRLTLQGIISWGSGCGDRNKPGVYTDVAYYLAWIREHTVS
T1 sequence (P00748 20-372 partner limits assumed): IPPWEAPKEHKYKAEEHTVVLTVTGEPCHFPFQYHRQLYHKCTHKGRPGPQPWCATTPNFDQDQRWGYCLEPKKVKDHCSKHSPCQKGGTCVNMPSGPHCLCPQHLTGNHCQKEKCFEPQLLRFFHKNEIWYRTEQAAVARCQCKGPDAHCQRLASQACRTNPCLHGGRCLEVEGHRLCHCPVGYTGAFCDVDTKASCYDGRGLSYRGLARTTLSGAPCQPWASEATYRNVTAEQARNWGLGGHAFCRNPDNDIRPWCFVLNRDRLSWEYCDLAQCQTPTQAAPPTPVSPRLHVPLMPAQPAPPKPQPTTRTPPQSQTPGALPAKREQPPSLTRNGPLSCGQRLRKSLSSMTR
Description: Determination of Human Factor XIIa (hFXIIa) inhibition
The Km for the cleavage of the substrate by hFXIIa was determined by standard transformation of the Michaelis-Menten equation, with subsequent inhibition assays performed at substrate Km concentration.

FXa = FXa (Homo sapiens, UniProt P00742); experiment: Related protease inhibition: FXa, fluorogenic substrate; conditions: fluorogenic substrate at Km, 25° C., H1-H3 = % activity at 40 μM; for activity at 40 µM: read-out: IC50 (human FXa) nM
FXa, sequence (P00742 235-488 limits assumed): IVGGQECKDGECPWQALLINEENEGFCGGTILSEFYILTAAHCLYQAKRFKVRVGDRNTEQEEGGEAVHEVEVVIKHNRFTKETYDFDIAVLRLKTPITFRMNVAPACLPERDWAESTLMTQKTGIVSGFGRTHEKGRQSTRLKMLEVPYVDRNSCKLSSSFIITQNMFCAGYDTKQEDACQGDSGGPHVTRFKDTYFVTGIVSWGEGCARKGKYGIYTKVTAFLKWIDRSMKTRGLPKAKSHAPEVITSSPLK
FXa, sequence (P00742 41-179 partner limits assumed): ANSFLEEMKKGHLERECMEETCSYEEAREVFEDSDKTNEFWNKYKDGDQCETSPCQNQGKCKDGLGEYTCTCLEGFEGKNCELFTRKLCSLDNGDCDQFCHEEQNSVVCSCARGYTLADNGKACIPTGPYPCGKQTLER
Description: as §1

CCNC(=O)c1nn(-c2cccc(Cl)c2)c2c1CCN(c1cccc(N3C4CCC3CN(C)C4)c1)C2=O [Example 1436, 1-(3-chlorophenyl)-N-ethyl-6-(3-(3-methyl-3,8-diazabicyclo[3.2.1]octan-8-yl)phenyl)-7-oxo-4,5,6,7-tetrahydro-1H-pyrazolo[3,4-c]pyridine-3-carboxamide]
activity at 40 µM (Thrombin): > 80% | IC50 [1]: 3 to 10 µM | activity at 40 µM (FXa): > 80%

CN1CCc2ccc(N3CCc4c(C(=O)NC5COCC56CC6)nn(-c5cccc(Cl)c5)c4C3=O)cc2C1=O (stereo not drawn) [Example 1438, 1-(3-chlorophenyl)-6-(2-methyl-1-oxo-1,2,3,4-tetrahydroisoquinolin-7-yl)-7-oxo-N-(5-oxaspiro[2.4]heptan-7-yl)-4,5,6,7-tetrahydro-1H-pyrazolo[3,4-c]pyridine-3-carboxamide]
activity at 40 µM (Thrombin): > 80% | IC50 [1]: 0.1 to 0.3 µM | activity at 40 µM (FXa): > 80%

Cc1cc(CNC(=O)c2nn(-c3cc(Cl)cc(CN)c3)c3c2CCN(c2ccc4c(c2)C(=O)N(C)CC4)C3=O)nn1C [Example 2017, 1-(3-(Aminomethyl)-5-chlorophenyl)-N-((1,5-dimethyl-1H-pyrazol-3-yl)methyl)-6-(2-methyl-1-oxo-1,2,3,4-tetrahydroisoquinolin-7-yl)-7-oxo-4,5,6,7-tetrahydro-1H-pyrazolo[3,4-c]pyridine-3-carboxamide]
IC50 (Thrombin): 1 to 3 µM | IC50 [1]: 0.001 to 0.01 µM | IC50 (FXa): 10 to 40 µM

CN1CCc2ccc(N3CCc4c(C(=O)NCC5CC5)nn(-c5cc(Cl)cc(CN)c5)c4C3=O)cc2C1=O [Example 2018, 1-(3-(aminomethyl)-5-chlorophenyl)-N-(cyclopropylmethyl)-6-(2-methyl-1-oxo-1,2,3,4-tetrahydroisoquinolin-7-yl)-7-oxo-4,5,6,7-tetrahydro-1H-pyrazolo[3,4-c]pyridine-3-carboxamide]
IC50 (Thrombin): 10 to 40 µM | IC50 [1]: 0.01 to 0.1 µM | IC50 (FXa): > 40 µM

CN1CCc2ccc(N3CCc4c(C(=O)NCC5CC5)nn(-c5cccc(CN)c5)c4C3=O)cc2C1=O [Example 2019, 1-(3-(aminomethyl)phenyl)-N-(cyclopropylmethyl)-6-(2-methyl-1-oxo-1,2,3,4-tetrahydroisoquinolin-7-yl)-7-oxo-4,5,6,7-tetrahydro-1H-pyrazolo[3,4-c]pyridine-3-carboxamide]
IC50 (Thrombin): 10 to 40 µM | IC50 [1]: 0.1 to 0.3 µM | IC50 (FXa): 10 to 40 µM

CCNC(=O)c1nn(-c2cccc(OC)n2)c2c1CCN(c1ccc3c(c1)C(=O)N(C)CC3)C2=O [Example 2037, N-ethyl-1-(6-methoxypyridin-2-yl)-6-(2-methyl-1-oxo-1,2,3,4-tetrahydroisoquinolin-7-yl)-7-oxo-4,5,6,7-tetrahydro-1H-pyrazolo[3,4-c]pyridine-3-carboxamide]
activity at 40 µM (Thrombin): > 80% | IC50 [1]: 10 to 40 µM | activity at 40 µM (FXa): > 80%

COCc1nn(-c2cccc(C#N)c2C)c2c1CCN(c1ccc3c(c1)C(=O)N(C)CC3)C2=O [Example 2038, 3-(3-(Methoxymethyl)-6-(2-methyl-1-oxo-1,2,3,4-tetrahydroisoquinolin-7-yl)-7-oxo-4,5,6,7-tetrahydro-1H-pyrazolo[3,4-c]pyridin-1-yl)-2-methylbenzonitrile]
activity at 40 µM (Thrombin): > 80% | IC50 [1]: 10 to 40 µM | activity at 40 µM (FXa): > 80%

COCc1nn(-c2cc(Cl)cc(CN)c2)c2c1CCN(c1ccc3c(c1)C(=O)N(C)CC3)C2=O [Example 2041, 7-(1-(3-(aminomethyl)-5-chlorophenyl)-3-(methoxymethyl)-7-oxo-1,4,5,7-tetrahydro-6H-pyrazolo[3,4-c]pyridin-6-yl)-2-methyl-3,4-dihydroisoquinolin-1(2H)-one]
activity at 40 µM (Thrombin): 20 to 80% | IC50 [1]: 0.01 to 0.1 µM | activity at 40 µM (FXa): 20 to 80%

CCNC(=O)c1nn(-c2cccc(C#N)c2C)c2c1CCN(c1ccc3c(c1)C(=O)N(C)CC3)C2=O [Example 2042, 1-(3-cyano-2-methylphenyl)-N-ethyl-6-(2-methyl-1-oxo-1,2,3,4-tetrahydroisoquinolin-7-yl)-7-oxo-4,5,6,7-tetrahydro-1H-pyrazolo[3,4-c]pyridine-3-carboxamide]
activity at 40 µM (Thrombin): 20 to 80% | IC50 [1]: 10 to 40 µM | activity at 40 µM (FXa): > 80%

CN1CCc2ccc(N3CCc4c(C(=O)N[C@@H](CO)C5CC5)nn(-c5cccc(Cl)c5F)c4C3=O)cc2C1=O [Example 2043, (R)-1-(3-chloro-2-fluorophenyl)-N-(1-cyclopropyl-2-hydroxyethyl)-6-(2-methyl-1-oxo-1,2,3,4-tetrahydroisoquinolin-7-yl)-7-oxo-4,5,6,7-tetrahydro-1H-pyrazolo[3,4-c]pyridine-3-carboxamide]
activity at 40 µM (Thrombin): 20 to 80% | IC50 [1]: 0.01 to 0.1 µM | activity at 40 µM (FXa): 20 to 80%

Cc1ccc(CNC(=O)c2nn(-c3cccc(Cl)c3F)c3c2CCN(c2ccc4c(c2)C(=O)N(C)CC4)C3=O)cn1 [Example 2044, 1-(3-chloro-2-fluorophenyl)-6-(2-methyl-1-oxo-1,2,3,4-tetrahydroisoquinolin-7-yl)-N-((6-methylpyridin-3-yl)methyl)-7-oxo-4,5,6,7-tetrahydro-1H-pyrazolo[3,4-c]pyridine-3-carboxamide]
activity at 40 µM (Thrombin): 20 to 80% | IC50 [1]: 0.01 to 0.1 µM | activity at 40 µM (FXa): > 80%

CCNC(=O)c1nn(-c2cc(C)cs2)c2c1CCN(c1ccc3c(c1)C(=O)N(C)CC3)C2=O [Example 2045, N-ethyl-6-(2-methyl-1-oxo-1,2,3,4-tetrahydroisoquinolin-7-yl)-1-(4-methylthiophen-2-yl)-7-oxo-4,5,6,7-tetrahydro-1H-pyrazolo[3,4-c]pyridine-3-carboxamide]
activity at 40 µM (Thrombin): 20 to 80% | IC50 [1]: 3 to 10 µM | activity at 40 µM (FXa): 20 to 80%

CN1CCOc2ccc(N3CCc4c(C(=O)NCC5CC5)nn(-c5cccc(Cl)c5F)c4C3=O)cc2C1=O [Example 2046, 1-(3-chloro-2-fluorophenyl)-N-(cyclopropylmethyl)-6-(4-methyl-5-oxo-2,3,4,5-tetrahydrobenzo[f][1,4]oxazepin-7-yl)-7-oxo-4,5,6,7-tetrahydro-1H-pyrazolo[3,4-c]pyridine-3-carboxamide]
activity at 40 µM (Thrombin): > 80% | IC50 [1]: 0.01 to 0.1 µM | activity at 40 µM (FXa): > 80%

CN1CCc2ccc(N3CCc4cnn(-c5cc(Cl)cc(CN)c5)c4C3=O)cc2C1=O [Example 2047, 7-(1-(3-(aminomethyl)-5-chlorophenyl)-7-oxo-1,4,5,7-tetrahydro-6H-pyrazolo[3,4-c]pyridin-6-yl)-2-methyl-3,4-dihydroisoquinolin-1(2H)-one]
activity at 40 µM (Thrombin): > 80% | IC50 [1]: 10 to 40 µM | activity at 40 µM (FXa): > 80%

CN1CCOc2ccc(N3CCc4c(C(=O)NC56CC(O)(C5)C6)nn(-c5cccc(Cl)c5F)c4C3=O)cc2C1=O [Example 2050, 1-(3-chloro-2-fluorophenyl)-N-(3-hydroxybicyclo[1.1.1]pentan-1-yl)-6-(4-methyl-5-oxo-2,3,4,5-tetrahydrobenzo[f][1,4]oxazepin-7-yl)-7-oxo-4,5,6,7-tetrahydro-1H-pyrazolo[3,4-c]pyridine-3-carboxamide]
activity at 40 µM (Thrombin): 20 to 80% | IC50 [1]: 0.01 to 0.1 µM | activity at 40 µM (FXa): 20 to 80%

CCNC(=O)c1nn(-c2cc(C)cc(Cl)c2)c2c1CCN(c1ccc3c(c1)C(=O)N(C)CC3)C2=O [Example 2051, 1-(3-chloro-5-methylphenyl)-N-ethyl-6-(2-methyl-1-oxo-1,2,3,4-tetrahydroisoquinolin-7-yl)-7-oxo-4,5,6,7-tetrahydro-1H-pyrazolo[3,4-c]pyridine-3-carboxamide]
activity at 40 µM (Thrombin): > 80% | IC50 [1]: 0.3 to 1 µM | activity at 40 µM (FXa): 20 to 80%
